In PMC9609996, “SAR Study and Molecular Mechanism Investigation of Novel Naphthoquinone-furan-2-cyanoacryloyl Hybrids with Antitumor Activity” (Pharmaceutics, 2022):

Legend:
Type in all cases: cell-based, human
HeLa cells [1] = test: Annexin V-FITC/PI apoptosis assay; conditions: 12 μM
Source text: Apoptosis in cancer cells could be caused by the generation of intracellular ROS [31, 32, 33]. Three methods were utilized to assess the effect of compound 5c on the apoptosis of HeLa cells. First, Hoechst 33342 was utilized to stain the HeLa cells that were pretreated with different concentrations of compound 5c. Then, the cells were observed under a fluorescence microscope. […] Second, an annexin V-FITC/PI double staining method was used to quantitatively detect the effect of compound 5c on cell apoptosis. A quantitative analysis was performed using a flow cytometry analysis. […] Third, the levels of Bcl-xl family proteins, well-known as apoptosis-related proteins, were determined by Western blotting analysis.
(§1) For the cell cycle analysis, HeLa cells seeded in a 6-well plate (3 × 10^5 per well) were incubated with different concentrations of compound 5c or 0.1% DMSO for 24 h. Then, the cells were digested with 0.25% trypsin (without EDTA) and were washed twice with PBS, fixed in 70% ethanol overnight, and stained with PI ([…], Sigma) plus 0.2 mg/mL of DNase-free RNase A (Qiagen) for 20 minutes at room temperature. For the annexin V apoptosis assay, HeLa cells seeded in a 6-well plate (3 × 10^5 per well) were incubated with different concentrations of compound 5c or 0.1% DMSO for 24 h. Then, the cells were digested with 0.25% trypsin (without EDTA) and were washed twice with PBS. […]

HeLa = test: CCK-8 anti-proliferation assay, HeLa; conditions: Homo sapiens, mean ± SD
Protocol: (§2) Human cervical cancer HeLa, human prostate cancer PC3, human colonic carcinoma HCT116, human lung carcinoma A549, human breast cancer MDA-MB-231, mouse melanoma B16, human ovarian cancer SKOV3, human hepatoma Hep3B, and human liver L02 cells were purchased from the Cell Bank of Shanghai Institute of Biochemistry and Cell Biology, Chinese Academy of Sciences (Shanghai, China). The HeLa, A549, B16, PC3, MDA-MB-231, HCT116, and L02 cells were cultured in Dulbecco’s modified Eagle medium (DMEM, Gibco Inc.; Gaithersburg, MD, USA). All cultures were supplied with 10% fetal bovine serum (FBS; YHSM, Beijing, China), 100 IU/mL of penicillin, and 100 μg/mL of streptomycin, and cells were incubated at 37 °C in an atmosphere of 5% CO2.
(§3) A CCK-8 kit (MCE, USA) was used to perform a CCK-8 assay. Cells were plated and grown in the 96-well plates for the indicated period (48 h) in the incubator, followed by an incubation with the CCK-8 solutions for 1–4 h. Subsequently, the absorbance (450 nm) was measured by a microplate reader. The median inhibitory concentration (IC50) was determined from the dose–response curve. Experiments were performed in a triplicate.

PC3 = test: CCK-8 anti-proliferation assay, PC3; conditions: mean ± SD; for IC50: 48 h
Protocol: as §2, §3

HeLa cells [2] = test: Cell cycle analysis by flow cytometry; conditions: 12 μM; 24 h; 10.19% at 0 μM
Protocol: To investigate the effect of compound 5c on the cell cycle distribution, a flow cytometric analysis was performed. HeLa cells were treated with 5c at concentrations of 0 μM, 6 μM, 9 μM, and 12 μM for 24 h and then subjected to a flow cytometric analysis after DNA staining. […] Accordingly, treatment of HeLa cells with 5c induced a G2/M phase arrest of cell cycle progression.
as §1, with “PBS. The cells were then collected and resuspended in 500 μL of the binding buffer. We added 5 μL of annexin V-FITC and PI each into the mixture in the dark. After 20 min of incubation, a flow cytometer (FACSCalibur; Becton Dickinson, Franklin Lakes, NJ, USA) was used to detect apoptosis (FITC Ex/Em = 488/525 nm and PI Ex/Em = 535/615 nm).” for “PBS.”

Bax in HeLa cells = test: Western blot, Bax; conditions: 6–12 μM, 24 h
Protocol: Protein levels were determined by the standard Western blot assay. HeLa cells were incubated with different concentrations of compound 5c or 0.1% DMSO for 24 h. Cells harvested with trypsin were treated with 1× RIPA lysis buffer (50 mM Tris-HCl, pH 7.4, 150 mM NaCl, 0.25% deoxycholic acid, 1% NP-40, 1 mM ethylenediaminetetraacetate (EDTA), and protease inhibitor PMSF (Solarbio, Beijing, China) to extract the total proteins. Then, an aliquot of proteins from the total cell lysates (4–40 μg/lane) was separated using sodium dodecyl sulfate (8, 10, or 12%) polyacrylamide gel electrophoresis (BioRad Laboratories, Hercules, CA, USA). The aliquot was wet-transferred to a PVDF membrane (BioRad Laboratories, Hercules, CA, USA), blotted with primary antibodies (purchased from Cell Signaling Technology, Danvers, MA, USA) specific for the STAT3 (#12640), p-STAT3 (#9145), AKT (#4691), p-AKT (#4060), Bax (#5023), Bcl-xl (#2764), secondary isotype-specific antibodies (#7074) and glyceraldehyde-3-phosphate dehydro-genase (GAPDH, #2118) as the internal standard overnight; then, they were probed with secondary isotype-specific antibodies for another 2 h at 37 °C. The bound immuno-complexes were detected using a ChemiDOC XRS+ system (BioRad Laboratories, Hercules, CA, USA).

ROS in HeLa cells = test: Cellular ROS detection (DCFDA flow cytometry); conditions: 6, 9, 12 μM, 6 h
Protocol: To measure reactive oxygen species (ROS) production, 2′,7′-dichlorofluorescein diacetate (DCFDA) (Thermo Fisher Scientific, Waltham, MA, USA; D399) was used. DCFDA is a fluorogenic dye that, after diffusion into the cell, is oxidized by ROS into 2′,7′-dichlorofluorescein (DCF), a highly fluorescent compound that can be detected by fluorescence spectroscopy. To measure ROS production, HeLa cells were treated with compound 5c at 6 μM, 9 μM, and 12 μM for 6 h. Then, cells were washed with pre-warmed 1X PBS and were incubated at 37 °C with 10 μM of DCFDA for 30 min in PBS. Subsequently, the HeLa cells were washed and analyzed in FL-1 using a FACScalibur flow cytometer (BD, USA) and using CELL Quest software (BD Biosciences, San Jose, CA, USA). Live cells were gated according to their forward scatter (FSC) and side scatter (SSC) properties. For each analysis, 20,000 events were recorded.

SMILES: N#C/C(=C\c1ccc(C2=CC(=O)c3ccccc3C2=O)o1)C(=O)NCCN1CCOCC1 [Compound 5c, (E)-2-cyano-3-(5-(1,4-dioxo-1,4-dihydronaphthalen-2-yl)furan-2-yl)-N-(2-morpholinoethyl)acrylamide]
- percentage of apoptotic cells (HeLa cells [1]): 46.70%
- inhibition at 20 µM (HeLa; 20 μM, read-out: Inhibition Rate (%) at 20 μM HeLa): 75.78 ± 0.05%
- IC50 (HeLa; 48 h): 3.1 ± 0.02 µM
- IC50 (PC3): 20.5 ± 0.05 µM
- inhibition at 20 µM (PC3; Homo sapiens, PC-3, 20 μM, read-out: Inhibition Rate (%) at 20 μM PC3): 25.54 ± 0.06%
- IC50 (PC3; Homo sapiens, PC-3, 48 h): > 20.5 µM
- HeLa cell population in the G2/M phase (HeLa cells [2]): 23.88%
- levels of Bax (Bax in HeLa cells): increased
- level of ROS in cancer cells (ROS in HeLa cells): significantly increased
